What follows are molecules tested on Echinochloa crus-galli (assay: Test Example 1: herbicidal effect test by treatment of rice paddy soil (immediately after seeding)). Settings: 120 g/10a active ingredient, dry weight vs untreated area, 14 days after treatment.
Format: in vivo
Summary of the method: (§1)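 Pre-emergence paddy water application, 120 g a.i./10 ares, applied immediately post-seeding into ~3 cm flood; glasshouse; duplicate pots; dry weight at 14 d → % inhibition = (1 − treated/untreated) × 100.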

Question: How did the “Herbicidal rate (%) Echinochloa crus-galli” value turn out when `CCC(C)n1oc(=O)c(Cc2ccccc2N(C(=O)OCC(C)C)S(=O)(=O)C(F)(F)F)c1C` (centres unmarked) [Compound 1-669] was run?
Answer: 90%

Question: Which “Herbicidal rate (%) Echinochloa crus-galli” value does the source give for `Cc1c(Cc2ccccc2NS(=O)(=O)C(F)(F)F)c(=O)on1CCC(C)C` [Compound 1-115] here?
Answer: 100%

These molecules were tested on Scirpus juncoides in the same assay as above. Settings: 120 g/10a active ingredient, dry weight vs untreated area, 14 days after treatment.
Format: in vivo
Summary of the method: as §1

Question: How did the “Herbicidal rate (%) Scirpus juncoides” value turn out when `CCC(C)n1oc(=O)c(Cc2ccccc2N(C(=O)OCC(C)C)S(=O)(=O)C(F)(F)F)c1C` (centres unmarked) [Compound 1-669] was run?
Answer: 90%

Question: With `Cc1c(Cc2ccccc2NS(=O)(=O)C(F)(F)F)c(=O)on1CCC(C)C` [Compound 1-115] as the molecule, how does the “Herbicidal rate (%) Scirpus juncoides” value read?
Answer: 90%

These molecules were tested on broad leaf weeds (Lindernia pyxidaria and Monochoria vaginalis) in the same assay as above. Settings: Lindernia pyxidaria, 120 g/10a active ingredient, dry weight vs untreated area, 14 days after treatment.
Format: in vivo
Summary of the method: as §1

Question: Which “Herbicidal rate (%) Lindernia pyxidaria” value does the source give for `CCC(C)n1oc(=O)c(Cc2ccccc2N(C(=O)OCC(C)C)S(=O)(=O)C(F)(F)F)c1C` (centres unmarked) [Compound 1-669] here?
Answer: 90%

Question: `Cc1c(Cc2ccccc2NS(=O)(=O)C(F)(F)F)c(=O)on1CCC(C)C` [Compound 1-115] was tested. Which “Herbicidal rate (%) Lindernia pyxidaria” value did it give?
Answer: 90%

Same assay, conditions: Monochoria vaginalis, 120 g/10a active ingredient, dry weight vs untreated area, 14 days after treatment

Question: How did the “Herbicidal rate (%) Monochoria vaginalis” value turn out when `CCC(C)n1oc(=O)c(Cc2ccccc2N(C(=O)OCC(C)C)S(=O)(=O)C(F)(F)F)c1C` (centres unmarked) [Compound 1-669] was run?
Answer: 90%

Question: With `Cc1c(Cc2ccccc2NS(=O)(=O)C(F)(F)F)c(=O)on1CCC(C)C` [Compound 1-115] as the molecule, how does the “Herbicidal rate (%) Monochoria vaginalis” value read?
Answer: 90%

What follows are molecules tested on Echinochloa crus-galli (assay: Test Example 2: herbicidal effect test by treatment during growing period in paddy rice cultivation (seven days after seeding)). Settings: 120 g/10a active ingredient, assessed 14 days after treatment, dry weight vs untreated area.
Format: in vivo
Summary of the method: (§2)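 Herbicidal rate = (1 − treated/untreated mean dry weight) × 100, scored 14 days after application, two replicates per rate. Treatment: diluted emulsion dropped onto paddy water seven days after sowing, 120 g active ingredient per 10 ares, in a glass greenhouse.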

Question: With `CCC(C)n1oc(=O)c(Cc2ccccc2N(C(=O)OCC(C)C)S(=O)(=O)C(F)(F)F)c1C` (centres unmarked) [Compound 1-669] as the molecule, how does the “Herbicidal rate (%) Echinochloa crus-galli” value read?
Answer: 90%

Question: `Cc1c(Cc2ccccc2NS(=O)(=O)C(F)(F)F)c(=O)on1CCC(C)C` [Compound 1-115] was tested. Which “Herbicidal rate (%) Echinochloa crus-galli” value did it give?
Answer: 90%

Each molecule was assayed on Scirpus juncoides in the same assay as above. Settings: 120 g/10a active ingredient, assessed 14 days after treatment, dry weight vs untreated area.
Format: in vivo
Summary of the method: as §2

Question: Which “Herbicidal rate (%) Scirpus juncoides” value does the source give for `CCC(C)n1oc(=O)c(Cc2ccccc2N(C(=O)OCC(C)C)S(=O)(=O)C(F)(F)F)c1C` (centres unmarked) [Compound 1-669] here?
Answer: 90%

Question: How did the “Herbicidal rate (%) Scirpus juncoides” value turn out when `Cc1c(Cc2ccccc2NS(=O)(=O)C(F)(F)F)c(=O)on1CCC(C)C` [Compound 1-115] was run?
Answer: 90%

Each molecule was assayed on broad leaf weeds (Lindernia pyxidaria and Monochoria vaginalis) in the same assay as above. Settings: Lindernia pyxidaria, 120 g/10a active ingredient, assessed 14 days after treatment, dry weight vs untreated area.
Format: in vivo
Summary of the method: as §2

Question: Which “Herbicidal rate (%) Lindernia pyxidaria” value does the source give for `CCC(C)n1oc(=O)c(Cc2ccccc2N(C(=O)OCC(C)C)S(=O)(=O)C(F)(F)F)c1C` (centres unmarked) [Compound 1-669] here?
Answer: 90%

Question: How did the “Herbicidal rate (%) Lindernia pyxidaria” value turn out when `Cc1c(Cc2ccccc2NS(=O)(=O)C(F)(F)F)c(=O)on1CCC(C)C` [Compound 1-115] was run?
Answer: 80%

Same assay, conditions: Monochoria vaginalis, 120 g/10a active ingredient, assessed 14 days after treatment, dry weight vs untreated area

Question: For `CCC(C)n1oc(=O)c(Cc2ccccc2N(C(=O)OCC(C)C)S(=O)(=O)C(F)(F)F)c1C` (centres unmarked) [Compound 1-669], which “Herbicidal rate (%) Monochoria vaginalis” value is on record?
Answer: 90%

Question: With `Cc1c(Cc2ccccc2NS(=O)(=O)C(F)(F)F)c(=O)on1CCC(C)C` [Compound 1-115] as the molecule, how does the “Herbicidal rate (%) Monochoria vaginalis” value read?
Answer: 80%

These molecules were tested on Amaranthus viridis (assay: Test Example 3: herbicidal effect test by treatment of dry field farming soil (one day after seeding)). Settings: 120 g/10a active ingredient, evaluated 14 days after treatment.
Format: in vivo
Summary of the method: (§3)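 Seeds (20 each) mixed into top 1 cm of alluvium in pots, surface pressed. One day later, diluted emulsion sprayed onto soil, 100 L/10 a, 120 g a.i./10 a. Dry weight at 14 d vs untreated gave % herbicidal rate; n=2.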

Question: Which “herbicidal rate, Amaranthus viridis” value does the source give for `CCC(C)n1oc(=O)c(Cc2ccccc2N(C(=O)OCC(C)C)S(=O)(=O)C(F)(F)F)c1C` (centres unmarked) [Compound 1-669] here?
Answer: 90%

Question: How did the “herbicidal rate, Amaranthus viridis” value turn out when `Cc1c(Cc2ccccc2NS(=O)(=O)C(F)(F)F)c(=O)on1CCC(C)C` [Compound 1-115] was run?
Answer: 100%

These molecules were tested on Chenopodium album in the same assay as above. Settings: 120 g/10a active ingredient, evaluated 14 days after treatment.
Format: in vivo
Summary of the method: as §3

Question: Which “herbicidal rate, Chenopodium album” value does the source give for `CCC(C)n1oc(=O)c(Cc2ccccc2N(C(=O)OCC(C)C)S(=O)(=O)C(F)(F)F)c1C` (centres unmarked) [Compound 1-669] here?
Answer: 90%

Question: Which “herbicidal rate, Chenopodium album” value does the source give for `Cc1c(Cc2ccccc2NS(=O)(=O)C(F)(F)F)c(=O)on1CCC(C)C` [Compound 1-115] here?
Answer: 100%

These molecules were tested on Echinochloa crus-galli in the same assay as above. Settings: 120 g/10a active ingredient, evaluated 14 days after treatment.
Format: in vivo
Summary of the method: as §3

Question: For `CCC(C)n1oc(=O)c(Cc2ccccc2N(C(=O)OCC(C)C)S(=O)(=O)C(F)(F)F)c1C` (centres unmarked) [Compound 1-669], which “herbicidal rate, Echinochloa crus-galli” value is on record?
Answer: 90%

Question: Which “herbicidal rate, Echinochloa crus-galli” value does the source give for `Cc1c(Cc2ccccc2NS(=O)(=O)C(F)(F)F)c(=O)on1CCC(C)C` [Compound 1-115] here?
Answer: 90%

Each molecule was assayed on southern crabgrass in the same assay as above. Settings: 120 g/10a active ingredient, evaluated 14 days after treatment.
Format: in vivo
Summary of the method: as §3

Question: With `CCC(C)n1oc(=O)c(Cc2ccccc2N(C(=O)OCC(C)C)S(=O)(=O)C(F)(F)F)c1C` (centres unmarked) [Compound 1-669] as the molecule, how does the “herbicidal rate, southern crabgrass” value read?
Answer: 90%

Question: Which “herbicidal rate, southern crabgrass” value does the source give for `Cc1c(Cc2ccccc2NS(=O)(=O)C(F)(F)F)c(=O)on1CCC(C)C` [Compound 1-115] here?
Answer: 90%

The molecules below were run on Amaranthus viridis (assay: Test Example 4: herbicidal effect test by treatment of leave and stem in dry field farming (seven days after seeding)). Settings: 120 g/10a active ingredient; emulsion sprayed seven days after seeding; evaluated 14 days after treatment.
Format: in vivo
Summary of the method: (§4)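 Twenty seeds per species were mixed into the top 1 cm of alluvial soil in 36 cm^2 pots; emulsions were sprayed seven days after seeding at 100 L per 10 ares (120 g active ingredient per 10 ares). Herbicidal rate (%) = {1 − treated/untreated mean dry weight} × 100, 14 days after treatment, duplicate.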

Question: Which “herbicidal effect (herbicidal rate), Amaranthus viridis” value does the source give for `CCC(C)n1oc(=O)c(Cc2ccccc2N(C(=O)OCC(C)C)S(=O)(=O)C(F)(F)F)c1C` (centres unmarked) [Compound 1-669] here?
Answer: 40%

Question: How did the “herbicidal effect (herbicidal rate), Amaranthus viridis” value turn out when `Cc1c(Cc2ccccc2NS(=O)(=O)C(F)(F)F)c(=O)on1CCC(C)C` [Compound 1-115] was run?
Answer: 40%

Each molecule was assayed on Chenopodium album in the same assay as above. Settings: 120 g/10a active ingredient; emulsion sprayed seven days after seeding; evaluated 14 days after treatment.
Format: in vivo
Summary of the method: as §4

Question: How did the “herbicidal effect (herbicidal rate), Chenopodium album” value turn out when `CCC(C)n1oc(=O)c(Cc2ccccc2N(C(=O)OCC(C)C)S(=O)(=O)C(F)(F)F)c1C` (centres unmarked) [Compound 1-669] was run?
Answer: 40%

Question: Which “herbicidal effect (herbicidal rate), Chenopodium album” value does the source give for `Cc1c(Cc2ccccc2NS(=O)(=O)C(F)(F)F)c(=O)on1CCC(C)C` [Compound 1-115] here?
Answer: 40%

What follows are molecules tested on Echinochloa crus-galli in the same assay as above. Settings: 120 g/10a active ingredient; emulsion sprayed seven days after seeding; evaluated 14 days after treatment.
Format: in vivo
Summary of the method: as §4

Question: `CCC(C)n1oc(=O)c(Cc2ccccc2N(C(=O)OCC(C)C)S(=O)(=O)C(F)(F)F)c1C` (centres unmarked) [Compound 1-669] was tested. Which “herbicidal effect (herbicidal rate), Echinochloa crus-galli” value did it give?
Answer: 90%

Question: With `Cc1c(Cc2ccccc2NS(=O)(=O)C(F)(F)F)c(=O)on1CCC(C)C` [Compound 1-115] as the molecule, how does the “herbicidal effect (herbicidal rate), Echinochloa crus-galli” value read?
Answer: 60%

These molecules were tested on southern crabgrass in the same assay as above. Settings: 120 g/10a active ingredient; emulsion sprayed seven days after seeding; evaluated 14 days after treatment.
Format: in vivo
Summary of the method: as §4

Question: For `CCC(C)n1oc(=O)c(Cc2ccccc2N(C(=O)OCC(C)C)S(=O)(=O)C(F)(F)F)c1C` (centres unmarked) [Compound 1-669], which “herbicidal effect (herbicidal rate), southern crabgrass” value is on record?
Answer: 90%

Question: With `Cc1c(Cc2ccccc2NS(=O)(=O)C(F)(F)F)c(=O)on1CCC(C)C` [Compound 1-115] as the molecule, how does the “herbicidal effect (herbicidal rate), southern crabgrass” value read?
Answer: 40%

From patent publication US11109593B2, “Isoxazolin-5-one derivative and herbicide containing same as active ingredient” (HOKKO CHEMICAL INDUSTRY CO., LTD., priority 2017, dated 2021)
